Experimental data: article PMC9973256, “A Cysteine Pair Controls Flavin Reduction by Extracellular Cytochromes during Anoxic/Oxic Environmental Transitions” (mBio, 2023)

Key:
Type in all cases: binding
MtrCsol (soluble MtrC) [1] = target: T1, MtrCsol (soluble MtrC) (Shewanella oneidensis, UniProt Q8EG34, C453S); experiment: […] NMR titration of FMN; conditions: oxidized protein; 20 mM potassium phosphate pH 7.6, 100 mM KCl, 25 °C; slow exchange
T1 construct: soluble form; lipid anchor site and signal peptide replaced by MtrB signal peptide; C-terminal StrepTactin tag; expressed in S. oneidensis delta-mtrC (LS661); decaheme

MtrCsol (soluble MtrC) [2] = target: T2, MtrCsol (soluble MtrC) (Shewanella oneidensis, UniProt Q8EG34); experiment: copurification through anaerobic PD10 size exclusion column, flavin fluorescence; conditions: 1 mM DTT (disulfide reduced), no copurification without DTT or with 50 uM dithionite only
T2 construct: soluble form; lipid anchor site and signal peptide replaced by MtrB signal peptide; C-terminal StrepTactin tag; expressed in S. oneidensis delta-mtrC (LS661); decaheme
T2 sequence (Q8EG34 26-671): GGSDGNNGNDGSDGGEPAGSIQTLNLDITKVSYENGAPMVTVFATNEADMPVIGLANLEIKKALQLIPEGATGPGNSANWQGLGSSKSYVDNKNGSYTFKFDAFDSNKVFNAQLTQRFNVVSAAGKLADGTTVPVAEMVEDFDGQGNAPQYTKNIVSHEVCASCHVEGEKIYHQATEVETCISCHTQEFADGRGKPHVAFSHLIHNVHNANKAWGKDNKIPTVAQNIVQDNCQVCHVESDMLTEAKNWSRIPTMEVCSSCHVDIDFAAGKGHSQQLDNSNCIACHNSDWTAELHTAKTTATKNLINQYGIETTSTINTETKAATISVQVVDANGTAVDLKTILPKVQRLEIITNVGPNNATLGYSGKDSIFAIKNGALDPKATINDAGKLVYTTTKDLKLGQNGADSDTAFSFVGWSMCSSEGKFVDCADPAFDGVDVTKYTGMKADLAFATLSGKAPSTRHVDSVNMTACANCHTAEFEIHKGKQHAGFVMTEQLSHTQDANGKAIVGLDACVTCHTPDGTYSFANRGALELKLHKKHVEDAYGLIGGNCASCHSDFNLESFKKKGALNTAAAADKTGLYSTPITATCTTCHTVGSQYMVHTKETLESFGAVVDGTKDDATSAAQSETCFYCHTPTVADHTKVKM

MtrCsol (soluble MtrC) [3] = target: T3, MtrCsol (soluble MtrC) (Shewanella oneidensis, UniProt Q8EG34, C453A); experiment: as above; conditions: 50 uM sodium dithionite (reduced FMN and heme), also with 1 mM DTT, no copurification without reductant
T3 construct: soluble form; lipid anchor site and signal peptide replaced by MtrB signal peptide; C-terminal StrepTactin tag; expressed in S. oneidensis delta-mtrC (LS661); decaheme
T3 sequence (Q8EG34 entry or part of it C453A): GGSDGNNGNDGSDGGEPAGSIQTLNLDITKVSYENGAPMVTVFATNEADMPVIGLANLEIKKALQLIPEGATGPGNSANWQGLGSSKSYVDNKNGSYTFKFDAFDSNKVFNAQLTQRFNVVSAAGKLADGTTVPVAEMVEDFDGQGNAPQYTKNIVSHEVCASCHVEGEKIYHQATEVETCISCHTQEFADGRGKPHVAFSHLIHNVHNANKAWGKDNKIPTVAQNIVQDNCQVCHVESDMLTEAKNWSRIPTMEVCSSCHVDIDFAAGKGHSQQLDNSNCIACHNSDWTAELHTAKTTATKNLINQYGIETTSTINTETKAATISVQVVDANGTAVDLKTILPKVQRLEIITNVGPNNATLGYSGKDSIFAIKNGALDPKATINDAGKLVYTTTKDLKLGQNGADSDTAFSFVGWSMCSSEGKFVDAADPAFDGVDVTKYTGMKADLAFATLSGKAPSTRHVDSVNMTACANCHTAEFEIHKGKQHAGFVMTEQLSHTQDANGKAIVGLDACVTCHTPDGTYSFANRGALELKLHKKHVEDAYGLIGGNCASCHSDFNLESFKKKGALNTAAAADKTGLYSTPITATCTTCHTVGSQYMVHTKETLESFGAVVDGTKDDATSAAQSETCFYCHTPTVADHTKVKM

T1 sequence (Q8EG34 entry or part of it C453S): as the sequence (Q8EG34 entry or part of it C453A) above, with A428S counted along it

For `Cc1cc2nc3c(=O)[nH]c(=O)nc-3n(C[C@H](O)[C@H](O)[C@H](O)COP(=O)(O)O)c2cc1C` [FMN], the “31P NMR titration of FMN” value (MtrCsol (soluble MtrC) [1]) was “signal of FMN upon exposure to oxidized MtrCC453Ssol was monitored”, the “copurification through anaerobic PD10 size exclusion column, flavin fluorescence” value (MtrCsol (soluble MtrC) [2]) was “showing that MtrCC453Asol would form a similar FMN complex to MtrCsol in the presence of DTT” and the “copurification through anaerobic PD10 size exclusion column, flavin fluorescence” value (MtrCsol (soluble MtrC) [3]) was “revealed copurification of FMN with MtrCC453Asol but not MtrCsol”.
